In US20240148674A1, “PHARMACEUTICALLY ACCEPTABLE SALTS OF MESDOPETAM AND USES THEREOF” (priority 2020, published 2024):
Where a name gives a salt, the structure may show the parent alone. Read-outs that look alike come from different tables or passages of the source.

Key:
[1] = Hygroscopicity test, weighed samples kept at varied humidity at 30° C. for one week; type: physicochemical; details: for Weight difference (%): 30° C., one week; for Hygroscopicity, in words: any tested relative humidity
Procedure: Hygroscopicity test of the L-tartaric salt of [2-(3-fluoro-5-methanesulfonylphenoxy)-ethyl] (propyl)amine was performed by keeping exact weight samples of the salt at varied humidity at 30° C. After one week, the samples were weighed again and based on the original weight the percentage weight difference was calculated.

[2] = test system: Parkinson's patients with L-DOPA induced dyskinesia (LIDs); assay: Human clinical study, 24-hour patient home diaries (good ON time); type: in vivo
Description: Home diaries have gained wide acceptance as endpoints for clinical development of therapeutics aiming to reduce treatment-related motor complications. Motor fluctuations are associated with compromise in activities of daily living and health-related quality of life. In clinical trials performed by Integrative Research Laboratories Sweden AB patients record their 24-hours motor function in 30-minute intervals, beginning at midnight. For each 30-minute interval the patient rates the state he or she has been in for the past 30 minutes; OFF, ON without troublesome dyskinesia or ON with troublesome dyskinesia. The patient also denoted the time when he or she has been asleep.
In general, an “OFF” time reduction or “good ON-time” increase of 1 hour may be considered clinically significant and has been used as an assumption in power calculations in clinical trials. Therefore, it can be assumed that shift towards more “good ON-time” of a minimum of 1-hour daily represents a clinically meaningful effect, considering the total time spent in the daily ON state (ON with and without troublesome dyskinesia) is not negatively affected by the treatment.
A valid diary is defined as not having more than 2 hours of invalid data entries (4 invalid entries) over a given 24-hour period. An invalid diary entry is defined as more than one entry recorded in each half-hour interval, an unreadable entry, or the absence of an entry in each half-hour interval. The average diary information from 3 valid diaries (if available) for each visit will be used to calculate diary-based efficacy endpoints. If there are only 2 valid diaries for a visit, then the average information from the 2 valid diaries will be used. If only one diary is valid, information from the single valid diary will be used. If no valid diaries were available for a patient visit, then the diary information was considered missing.
At run-in and following treatment patients were asked to complete home diaries describing their motor status in 30-minute intervals for 24 hours. […]

[3] = test system: unilateral 6-OHDA-lesioned rats; assay: Rodent unilateral 6-OHDA lesion model of L-DOPA sensitization, rotation test by ROTORAT; type: in vivo, Sprague Dawley rats; details: for Contralateral turns, test compound given alone: without L-DOPA, 0-2.5 h
Procedure: The unilateral 6-OHDA lesion model is an established animal model of Parkinson's disease (see e.g. Exp. Neurol. 194: 66-75 (2005)). The neurotoxin 6-OH-DA is injected in the medial forebrain bundle (MFB), resulting in depletion of dopamine e.g. in the striatum. Upon repeated administration of L-DOPA, the animals with such a lesion display sensitization to L-DOPA, captured by rotational behaviour measured as associated with the development of LIDs. The effects of IRL790 (as a HCl-salt) on fully established AIMs have been published previously (J. Pharmacol. Exp. Ther. 374: 113-125 (2020)). Thus, in this article the administration of IRL790 was […]. […] The co-administration of said test compound with the L-DOPA was not preceded by treatment with L-DOPA. The clinically used antidyskinetic compound amantadine (as a HCl-salt) together with L-DOPA was used for comparison.
For the evaluation of sensitization to L-DOPA the rodent unilateral 6-OH-DA-lesion model was used. Adult 150˜200 g female Sprague Dawley rats (Charles River) were housed in temperature- and humidity-controlled rooms (20° C., 53% humidity) with a 12 h dark/light cycle. The rats had access to standard food pellets and water ad libitum. The experiments were approved by the local ethical committee at Karolinska Institute (Stockholm North Ethical Committee, N1525/2017) and conducted in accordance with the European Communities Council Directive of 24 Nov. 1986 (86/609/EEC).
Experimental procedures including unilateral 6-OH-DA-lesions and behavioral assessments were carried as follows. Rats were anesthetized using a mixture of ketamine (100 mg/kg, i.p.; Parke-Davis, Boxmeer, The Netherlands) and xylazine (10 mg/kg, i.p.; Bayer, Kiel, Germany), pretreated with a mixture of desipramine (25 mg/kg, i.p.; Sigma-Aldrich) and pargyline (5 mg/kg, i.p.; Sigma-Aldrich) 30 minutes before lesioning to prevent uptake of 6-OHDA into noradrenergic neurons, and to prevent extracellular metabolism of 6-OHDA, respectively. Rats were placed in a stereotaxic frame (David Kopf Instruments, KOPF®, USA) and injected with temgesic (0.1 mg/kg, s.c., Apoteket, Sweden) before surgery; 2 μl 6-OHDA (5 μg/μl in saline containing 0.02% w/v ascorbic acid, Sigma-Aldrich) was injected into the right MFB, stereotaxic coordinates AP: −2.5 mm, ML: −2.0 mm, DV: −8.5 mm vs. bregma and dural surface (The Rat Brain in Stereotaxic Coordinates 6th Edition, George Paxinos and Charles Watson, 2007) in order to selectively lesion dopaminergic cells in the right brain hemisphere. Post-operative analgesia (Temgesic, s.c.) was administered twice within 48 hours after surgery. Two weeks following surgery, rats were treated with apomorphine (1 mg/kg i.p.; Sigma-Aldrich) to verify successful lesioning. […]

[4] = test system: immediate early response genes (IEGs) cfos and arc; assay: Striatal gene expression analysis by qPCR in 6-OHDA-lesioned rats; type: in vivo
Procedure: Data is expressed as relative gene expression and was statistically evaluated by two-way ANOVA (analysis of variance).
Data is expressed as relative gene expression and was statistically evaluated by two-way ANOVA (analysis of variance). * denotes p<0.05, ** denotes p<0.01, and *** denotes p<0.001.
Whenever L-DOPA was used in this study, it was administered together with benzerazid HCl-salt 7.5 mg/kg i.p, which is a standard procedure when L-DOPA is administered to rats in the unilateral 6-OHDA lesion model. Chronic treatment of four groups of rats was started with either: (1) L-DOPA (10 mg/kg), (2) [2-(3-fluoro-5-methanesulfonyl-phenoxy)ethyl](propyl)amine tartaric acid salt (3 mg/kg s.c.), (3) L-DOPA (10 mg/kg)+[2-(3-fluoro-5-methanesulfonyl-phenoxy)ethyl](propyl)amine tartaric acid salt (3 mg/kg s.c.), or (4) the corresponding vehicle (saline, i.p.) given once daily for 2 weeks. Additionally, two groups of rats were treated with either amantadine HCl salt (40 mg/kg ip), or L-DOPA (10 mg/kg)+amantadine HCl salt (40 mg/kg i.p.), once daily for 14 days. Behavioural assessments were performed on Day 1, Day 7, and Day 14 of chronic treatment. Thus, on Days 1, 7 and 14 contralateral rotations (i.e. rotations in the opposite direction to the side of the 6-OH-DA-lesion) were measured. Contralateral rotations were measured by Rotorat over 2.5 hours after the administration of test compound. […]

[5] = as disclosed in PCT/EP2020/064046; cited from earlier work
[6] = Procedure: The temperature was 25° C. using step intervals of 10% between 0% and 95% RH in two consecutive cycles.
[7] = test system: adverse involuntary movements (AIMs); details: J. Pharmacol. Exp. Ther. 374: 113-125, July 2020; cited from earlier work
[8] = once daily 2 weeks, Example 7 3 mg/kg s.c., amantadine HCl salt 40 mg/kg i.p., Day 1, 7, 14

CCCNCCOc1cc(F)cc(S(C)(=O)=O)c1 [Example 7, L-tartaric Acid Salt of [2-(3-fluoro-5-methanesulfonylphenoxy)ethyl](propyl)amine]
Weight difference (%) ([1]; Relative Humidity 0 %): −0.26%
Weight difference (%) ([1]; Relative Humidity 6 %): 0.00%
Weight difference (%) ([1]; Relative Humidity 11 %): −0.06%
Weight difference (%) ([1]; Relative Humidity 22 %): 0.12%
Weight difference (%) ([1]; Relative Humidity 33 %): −0.18%
Weight difference (%) ([1]; Relative Humidity 45 %): −0.13%
Weight difference (%) ([1]; Relative Humidity 56 %): −0.15%
Weight difference (%) ([1]; Relative Humidity 73 %): −0.24%
Weight difference (%) ([1]; Relative Humidity 75 %): −0.07%
Weight difference (%) ([1]; Relative Humidity 83 %): 0.06%
Weight difference (%) ([1]; Relative Humidity 97 %): −0.08%
Hygroscopicity, in words [1]: very low hygroscopicity
Hygroscopicity, in words ([1]; listed as L-tartaric acid salt): not hygroscopic at any relative humidities
Improvement in good ON time (mean values) ([2]; 5 mg or less (2.5 mg in some patients) twice-daily (b.i.d.), 9 patients): 2.1 h
Improvement in good ON time (mean values) ([2]; 7.5 mg twice-daily (b.i.d.), 8 patients): 5.6 h
Improvement in good ON time (mean values) ([2]; 10 mg or more (12.5 mg in some patients) twice-daily (b.i.d.), 20 patients): 1.4 h
Contralateral rotational behavior Day 7 or Day 14 vs Day 1, co-treated with L-DOPA (sensitization) ([3]; co-administered with L-DOPA 10 mg/kg once daily 2 weeks, Example 7 3 mg/kg s.c., amantadine HCl salt 40 mg/kg i.p.): no significant difference
Contralateral turns, test compound given alone [3, 8]: no contralateral turns
Effect on L-DOPA-induced increase of striatal cfos and arc expression ([4]; combination with L-DOPA, 14 days, Example 7 3 mg/kg): attenuated

CCCNCCOc1cc(F)cc(S(C)(=O)=O)c1 [tartaric acid salt of [2-(3-fluoro-5-methanesulfonylphenoxy)-ethyl] (propyl)amine]
Hygroscopicity, in words [5]: non-hygroscopic

CCCNCCOc1cc(F)cc(S(C)(=O)=O)c1.Cl [Example 1 of WO 2012/143337, hydrochloric acid salt of [2-(3-fluoro-5-methanesulfonylphenoxy)-ethyl](propyl)amine]
Weight gained ([6]; 95% relative humidity and 25° C., DVS): approximately 3%
Hygroscopicity, in words ([6]; high relative humidities): hygroscopic at high relative humidities

NC12CC3CC(CC(C3)C1)C2 [amantadine HCl salt, amantadine, reference compound]
Contralateral turns, test compound given alone [3, 8]: no contralateral turns

N[C@@H](Cc1ccc(O)c(O)c1)C(=O)O [L-DOPA, L-3,4-dihydroxyphenylalanine, reference compound]
Contralateral rotational behavior over time, L-DOPA alone ([3]; L-DOPA 10 mg/kg with benzerazid 7.5 mg/kg i.p., once daily 2 weeks, Day 1, 7, 14): increasing contralateral rotational behavior
Striatal expression of IEGs cfos and arc, L-DOPA treatment ([4]; L-DOPA, 14 days of treatment, relative gene expression): significantly increased

CCCNCCOc1cc(F)cc(S(C)(=O)=O)c1 [Example 2, [2-(3-fluoro-5-methanesulfonylphenoxy)ethyl](propyl)amine]
Adverse involuntary movements (AIMs) [7]: dose-dependently reduced
